Experimental data: patent US9187462B2, “Substituted quinazolines as serine/threonine kinase inhibitors” (Array BioPharma Inc., priority 2011, dated 2015)
Read-outs that look alike come from different tables or passages of the source.

Target: human ERK-2 (Mitogen Activated Kinase 1) (Homo sapiens (Human), UniProt P28482)
Test: ERK-2 Enzymatic Assay
Format: biochemical
Settings: 5 nM ERK-2 enzyme, 25 μM ATP, Omnia peptide S/T17, single assay or mean of multiple assays
Method: Compounds were tested in an enzymatic assay using human ERK-2 (Mitogen Activated Kinase 1), recombinantly expressed as an N-terminal 6-His fusion protein in E. coli and corresponding to aa 8-360. The substrate used was the fluorescent Omnia peptide S/T17 (Invitrogen of Carlsbad, Calif.; Cat. KNZ1171C). Test compounds were diluted in DMSO in 3-fold serial dilutions at 100× final concentrations. […] The assay was run at ambient temperature in a white 384-well polypropylene plate (Nunc, Inc of Naperville, Ill.; Cat. 267462) collecting data every 50 seconds for approximately 30 minutes on an Envision plate reader (PerkinElmer, Inc. of Waltham, Mass.); Excitation 340 nm/Emission 495 nm. The data collected from each well was fit to a straight line and the resulting rates were used to calculate percent of control. Percent of control was plotted against compound concentration and IC50 values were determined using a four-parameter fit. Representative data is in TABLE I and TABLE II. The reported IC50 may be from a single assay or the mean of multiple assays.

[1] = read-out: IC50 (ERK-2 Enzymatic Assay), TABLE II
[2] = read-out: IC50 (ERK-2 Enzymatic Assay), TABLE I

human ERK-2 (Mitogen Activated Kinase 1), sequence (P28482 8-360): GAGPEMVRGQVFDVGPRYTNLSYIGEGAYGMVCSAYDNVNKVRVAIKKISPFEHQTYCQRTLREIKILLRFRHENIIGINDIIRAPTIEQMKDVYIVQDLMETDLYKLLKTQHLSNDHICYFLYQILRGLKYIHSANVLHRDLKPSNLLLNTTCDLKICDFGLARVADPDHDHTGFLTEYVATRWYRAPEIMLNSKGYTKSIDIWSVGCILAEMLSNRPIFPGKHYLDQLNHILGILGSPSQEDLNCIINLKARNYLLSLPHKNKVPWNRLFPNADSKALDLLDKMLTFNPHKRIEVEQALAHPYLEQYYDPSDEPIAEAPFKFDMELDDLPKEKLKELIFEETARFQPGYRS

COc1ccc([C@H](NC(=O)c2cc(F)c3cnc(NC(C)C(F)(F)F)nc3c2)c2cnn(C)c2)cc1F (single isomer, unassigned) [II-1] showed an IC50 [1] of 6.2 nM.

Work on COc1ccc([C@H](NC(=O)c2cc(F)c3cnc(NC(C)C(F)(F)F)nc3c2)c2cnn(C)c2)cc1F (single isomer, unassigned) [II-2] yielded an IC50 [1] of 13.6 nM.

Work on CC(C)Nc1ncc2ccc(C(=O)N[C@H](c3ccc(C(F)(F)F)c(F)c3)[C@@H]3CCCN3)cc2n1 (stereo in doubt) [I-5, 2-isopropylamino-quinazoline-7-carboxylic acid [(S)-(3-fluoro-4-trifluoromethyl-phenyl)-(R)-pyrrolidin-2-yl-methyl]-amide] yielded an IC50 [2] of 2.3 nM.

O=C(N[C@H](c1ccc(C(F)(F)F)c(F)c1)[C@@H]1CCCN1)c1ccc2cnc(NC3CCOCC3)nc2c1 (stereo in doubt) [I-7, 2-(tetrahydropyran-4-ylamino)-quinazoline-7-carboxylic acid [(S)-(3-fluoro-4-trifluoromethyl-phenyl)-(R)-pyrrolidin-2-yl-methyl]-amide] showed an IC50 [2] of 1.8 nM.

O=C(N[C@H](c1ccc(Cl)c(F)c1)[C@@H]1CCCN1)c1ccc2cnc(NC3CCOCC3)nc2c1 (stereo in doubt) [I-23, 2-(tetrahydropyran-4-ylamino)-quinazoline-7-carboxylic acid [(S)-(4-chloro-3-fluoro-phenyl)-(R)-pyrrolidin-2-yl-methyl]-amide] gave an IC50 [2] of 2.3 nM.

COc1ccc([C@@H](NC(=O)c2ccc3cnc(NC4CCOCC4)nc3c2)[C@@H]2CCCN2)cc1F (stereo in doubt) [I-24, 2-(tetrahydropyran-4-ylamino)-quinazoline-7-carboxylic acid [(S)-(3-fluoro-4-methoxy-phenyl)-(R)-pyrrolidin-2-yl-methyl]-amide] gave an IC50 [2] of 8.2 nM.

Work on COc1ccc([C@@H](NC(=O)c2cc(F)c3cnc(NC4CCOCC4)nc3c2)[C@@H]2CCCN2)cc1F (stereo in doubt) [I-25, 5-fluoro-2-(tetrahydropyran-4-ylamino)-quinazoline-7-carboxylic acid [(S)-(3-fluoro-4-methoxy-phenyl)-(R)-pyrrolidin-2-yl-methyl]-amide] yielded an IC50 [2] of 9 nM.

Work on C[C@@H](CO)Nc1ncc2ccc(C(=O)NC(c3ccc(Cl)c(F)c3)c3ccn(C)n3)cc2n1 (stereo partly drawn) [I-6, N-((4-chloro-3-fluorophenyl)(1-methyl-1H-pyrazol-3-yl)methyl)-2-((S)-1-hydroxypropan-2-ylamino)quinazoline-7-carboxamide] yielded an IC50 [2] of 5 nM.

In the case of CCn1ccc([C@@H](NC(=O)c2ccc3cnc(NC4CCOCC4)nc3c2)c2ccc(Cl)c(F)c2)n1 [I-19, 2-(tetrahydropyran-4-ylamino)-quinazoline-7-carboxylic acid [(S)-(4-chloro-3-fluoro-phenyl)-(1-ethyl-1H-pyrazol-3-yl)-methyl]-amide], the IC50 [2] is reported as 2.4 nM.
